Reference: ChEMBL document CHEMBL1152457, “Antimicrobial drug resistance of Salmonella enterica serovar typhi in asia and molecular mechanism of reduced susceptibility to the fluoroquinolones” (2007)
In brackets after ≈: the same amount, converted by molar mass.

Key:
Type in all cases: functional, Salmonella enterica subsp. enterica serovar Typhi
[1] = system: Salmonella enterica subsp. enterica; experiment: Antimicrobial activity against Salmonella enterica Serovar Typhi isolate D43 harboring DNA gyrase A S83Y mutation by disk diffusion method in presence of plasmid mediated quinolone-resistant gene qnrA and qnrS
[2] = system: Salmonella enterica subsp. enterica; experiment: Antimicrobial activity against multidrug-resistant Salmonella enterica Serovar Typhi isolate A102 harboring DNA gyrase A S83Y mutation by disk diffusion method in presence of plasmid mediated quinolone-resistant gene qnrA and qnrS
[3] = system: Salmonella enterica subsp. enterica; experiment: Antimicrobial activity against Salmonella enterica Serovar Typhi isolate C152 harboring DNA gyrase A S83Y mutation by disk diffusion method in presence of plasmid mediated quinolone-resistant gene qnrA and qnrS
[4] = system: Salmonella enterica subsp. enterica; experiment: Antimicrobial activity against multidrug-resistant Salmonella enterica Serovar Typhi isolate CT29 harboring DNA gyrase A S83F mutation by disk diffusion method in presence of plasmid mediated quinolone-resistant gene qnrA and qnrS
[5] = system: Salmonella enterica subsp. enterica; experiment: Antimicrobial activity against multidrug-resistant Salmonella enterica Serovar Typhi isolate CT61 harboring DNA gyrase A S83F mutation by disk diffusion method in presence of plasmid mediated quinolone-resistant gene qnrA and qnrS
[6] = system: Salmonella enterica subsp. enterica; experiment: Antimicrobial activity against multidrug-resistant Salmonella enterica Serovar Typhi isolate nar 102 harboring DNA gyrase A S83F mutation by disk diffusion method in presence of plasmid mediated quinolone-resistant gene qnrA and qnrS
[7] = system: Salmonella enterica subsp. enterica; experiment: Antimicrobial activity against multidrug-resistant Salmonella enterica Serovar Typhi isolate nar 104 harboring DNA gyrase A S83F mutation by disk diffusion method in presence of plasmid mediated quinolone-resistant gene qnrA and qnrS
[8] = system: Salmonella enterica subsp. enterica; experiment: Antimicrobial activity against Salmonella enterica Serovar Typhi isolate nar 108 harboring DNA gyrase A S83F mutation by disk diffusion method in presence of plasmid mediated quinolone-resistant gene qnrA and qnrS
[9] = system: Salmonella enterica subsp. enterica; experiment: Antimicrobial activity against Salmonella enterica Serovar Typhi isolate ipt 2 harboring DNA gyrase A D87G mutation by disk diffusion method in presence of plasmid mediated quinolone-resistant gene qnrA and qnrS
[10] = system: Salmonella enterica subsp. enterica; experiment: Antimicrobial activity against multidrug-resistant Salmonella enterica Serovar Typhi isolate nar 45 harboring DNA gyrase A S83F mutation by disk diffusion method
[11] = system: Salmonella enterica subsp. enterica; experiment: Antimicrobial activity against multidrug-resistant Salmonella enterica Serovar Typhi isolate nar 50 harboring DNA gyrase A S83F mutation by disk diffusion method
[12] = system: Salmonella enterica subsp. enterica; experiment: Antimicrobial activity against multidrug-resistant Salmonella enterica Serovar Typhi isolate nar 51 harboring DNA gyrase A S83F mutation by disk diffusion method
[13] = system: Salmonella enterica subsp. enterica; experiment: Antimicrobial activity against multidrug-resistant Salmonella enterica Serovar Typhi isolate ipt 32 harboring DNA gyrase A S83F mutation by disk diffusion method
[14] = system: Salmonella enterica subsp. enterica; experiment: Antimicrobial activity against multidrug-resistant Salmonella enterica Serovar Typhi isolate ipt 33 harboring DNA gyrase A S83F mutation by disk diffusion method
[15] = system: Salmonella enterica subsp. enterica; experiment: Antimicrobial activity against multidrug-resistant Salmonella enterica Serovar Typhi isolate CT118 harboring DNA gyrase A S83F mutation by disk diffusion method in presence of plasmid mediated quinolone-resistant gene qnrA and qnrS
[16] = system: Salmonella enterica subsp. enterica; experiment: Antimicrobial activity against Salmonella enterica Serovar Typhi isolate CT142 harboring DNA gyrase A S83F mutation by disk diffusion method in presence of plasmid mediated quinolone-resistant gene qnrA and qnrS
[17] = system: Salmonella enterica subsp. enterica; experiment: Antimicrobial activity against Salmonella enterica Serovar Typhi isolate CT144 harboring DNA gyrase A D87G mutation by disk diffusion method in presence of plasmid mediated quinolone-resistant gene qnrA and qnrS
[18] = system: Salmonella enterica subsp. enterica; experiment: Antimicrobial activity against multidrug-resistant Salmonella enterica Serovar Typhi isolate DT2 harboring DNA gyrase A S83F mutation by disk diffusion method in presence of plasmid mediated quinolone-resistant gene qnrA and qnrS
[19] = system: Salmonella enterica subsp. enterica; experiment: Antimicrobial activity against multidrug-resistant Salmonella enterica Serovar Typhi isolate DT3 harboring DNA gyrase A S83F mutation by disk diffusion method in presence of plasmid mediated quinolone-resistant gene qnrA and qnrS
[20] = system: Salmonella enterica subsp. enterica; experiment: Antimicrobial activity against multidrug-resistant Salmonella enterica Serovar Typhi isolate DT9 harboring DNA gyrase A S83F mutation by disk diffusion method
[21] = system: Salmonella enterica subsp. enterica; experiment: Antimicrobial activity against multidrug-resistant Salmonella enterica Serovar Typhi isolate DT18 harboring DNA gyrase A S83F and D87G mutation by disk diffusion method
[22] = system: Salmonella enterica subsp. enterica; experiment: Antimicrobial activity against multidrug-resistant Salmonella enterica Serovar Typhi isolate DT40 harboring DNA gyrase A S83F mutation by disk diffusion method
[23] = system: Salmonella enterica subsp. enterica; experiment: Antimicrobial activity against multidrug-resistant Salmonella enterica Serovar Typhi isolate DT48 harboring DNA gyrase A S83F mutation by disk diffusion method
[24] = system: Salmonella enterica subsp. enterica; experiment: Antimicrobial activity against multidrug-resistant Salmonella enterica Serovar Typhi isolate DT49 harboring DNA gyrase A S83F mutation by disk diffusion method
[25] = system: Salmonella enterica subsp. enterica; experiment: Antimicrobial activity against multidrug-resistant Salmonella enterica Serovar Typhi isolate DT54 harboring DNA gyrase A S83F mutation by disk diffusion method
[26] = system: Salmonella enterica subsp. enterica; experiment: Antimicrobial activity against multidrug-resistant Salmonella enterica Serovar Typhi isolate DT60 harboring DNA gyrase A S83F mutation by disk diffusion method
[27] = system: Salmonella enterica subsp. enterica; experiment: Antimicrobial activity against multidrug-resistant Salmonella enterica Serovar Typhi isolate AG5 harboring DNA gyrase A S83F mutation by disk diffusion method
[28] = system: Salmonella enterica subsp. enterica; experiment: Antimicrobial activity against multidrug-resistant Salmonella enterica Serovar Typhi isolate AG6 harboring DNA gyrase A S83F mutation by disk diffusion method
[29] = system: Salmonella enterica subsp. enterica; experiment: Antimicrobial activity against multidrug-resistant Salmonella enterica Serovar Typhi isolate AG7 harboring DNA gyrase A S83F mutation by disk diffusion method
[30] = system: Salmonella enterica subsp. enterica; experiment: Antimicrobial activity against multidrug-resistant Salmonella enterica Serovar Typhi isolate AG8 harboring DNA gyrase A S83F mutation by disk diffusion method
[31] = system: Salmonella enterica subsp. enterica; experiment: Antimicrobial activity against multidrug-resistant Salmonella enterica Serovar Typhi isolate AG15 harboring DNA gyrase A S83F mutation by disk diffusion method
[32] = system: Salmonella enterica subsp. enterica; experiment: Antimicrobial activity against multidrug-resistant Salmonella enterica Serovar Typhi isolate AG16 harboring DNA gyrase A S83F mutation by disk diffusion method
[33] = system: Salmonella enterica subsp. enterica; experiment: Antimicrobial activity against multidrug-resistant Salmonella enterica Serovar Typhi isolate AG17 harboring DNA gyrase A S83F mutation by disk diffusion method
[34] = system: Salmonella enterica subsp. enterica; experiment: Antimicrobial activity against multidrug-resistant Salmonella enterica Serovar Typhi isolate AG152 harboring DNA gyrase A S83F and D87G mutation by disk diffusion method in presence of plasmid mediated quinolone-resistant gene qnrA and qnrS
[35] = system: Salmonella enterica subsp. enterica; experiment: Antimicrobial activity against multidrug-resistant Salmonella enterica Serovar Typhi isolate AG168 harboring DNA gyrase A S83F mutation by disk diffusion method
[36] = system: Salmonella enterica subsp. enterica; experiment: Antimicrobial activity against Salmonella enterica Serovar Typhi isolate AG169 harboring DNA gyrase A S83F mutation by disk diffusion method
[37] = system: Salmonella enterica subsp. enterica; experiment: Antimicrobial activity against multidrug-resistant Salmonella enterica Serovar Typhi isolate AG176 harboring DNA gyrase A S83F mutation by disk diffusion method
[38] = system: Salmonella enterica subsp. enterica; experiment: Antimicrobial activity against Salmonella enterica Serovar Typhi isolate AG258 harboring DNA gyrase A S83F mutation by disk diffusion method in presence of plasmid mediated quinolone-resistant gene qnrA and qnrS
[39] = system: Salmonella enterica subsp. enterica; experiment: Antimicrobial activity against multidrug-resistant Salmonella enterica Serovar Typhi isolate HTD 798 harboring DNA gyrase A S83F mutation by disk diffusion method
[40] = system: Salmonella enterica subsp. enterica; experiment: Antimicrobial activity against multidrug-resistant Salmonella enterica Serovar Typhi isolate BL 3769 harboring DNA gyrase A S83F mutation by disk diffusion method in presence of plasmid mediated quinolone-resistant gene qnrA and qnrS

SMILES | MIC [1] [µg/mL] | MIC [2] [µg/mL] | MIC [3] [µg/mL] | MIC [4] [µg/mL] | MIC [5] [µg/mL] | MIC [6] [µg/mL] | MIC [7] [µg/mL] | MIC [8] [µg/mL] | MIC [9] [µg/mL] | MIC [10] [µg/mL] | MIC [11] [µg/mL] | MIC [12] [µg/mL] | MIC [13] [µg/mL] | MIC [14] [µg/mL] | MIC [15] [µg/mL] | MIC [16] [µg/mL] | MIC [17] [µg/mL] | MIC [18] [µg/mL] | MIC [19] [µg/mL] | MIC [20] [µg/mL] | other results
O=C(O)c1cn(C2CC2)c2cc(N3CCNCC3)c(F)cc2c1=O [CIPROFLOXACIN] | 0.25 | 0.25 | 0.25 | 0.5 | 0.125 | 0.125 | 0.25 | 0.25 | 0.25 | 0.5 (≈ 1.51 µM) | 0.5 (≈ 1.51 µM) | 0.5 (≈ 1.51 µM) | 0.5 (≈ 1.51 µM) | 0.5 (≈ 1.51 µM) | 0.38 | 0.38 | 0.25 | 0.5 | 0.5 | 0.5 (≈ 1.51 µM) | MIC [21]: 0.5 µg/mL (≈ 1.51 µM); MIC [22]: 0.38 µg/mL (≈ 1.15 µM); MIC [23]: 0.5 µg/mL (≈ 1.51 µM); MIC [24]: 0.5 µg/mL (≈ 1.51 µM); MIC [25]: 0.5 µg/mL (≈ 1.51 µM); MIC [26]: 0.25 µg/mL (≈ 0.754 µM); MIC [27]: 0.5 µg/mL (≈ 1.51 µM); MIC [28]: 0.5 µg/mL (≈ 1.51 µM); MIC [29]: 0.5 µg/mL (≈ 1.51 µM); MIC [30]: 0.5 µg/mL (≈ 1.51 µM); MIC [31]: 0.5 µg/mL (≈ 1.51 µM); MIC [32]: 0.38 µg/mL (≈ 1.15 µM); MIC [33]: 0.5 µg/mL (≈ 1.51 µM); MIC [34]: 0.38 µg/mL; MIC [35]: 0.38 µg/mL (≈ 1.15 µM); MIC [36]: 0.38 µg/mL (≈ 1.15 µM); MIC [37]: 0.25 µg/mL (≈ 0.754 µM); MIC [38]: 0.5 µg/mL; MIC [39]: 0.38 µg/mL (≈ 1.15 µM); MIC [40]: 0.25 µg/mL
COc1c(N2CCNC(C)C2)c(F)cc2c(=O)c(C(=O)O)cn(C3CC3)c12 (stereo not given) [GATIFLOXACIN] | 0.19 | 0.19 | 0.19 | 0.094 | 0.064 | 0.094 | 0.125 | 0.125 | 0.125 | 0.125 (≈ 0.333 µM) | 0.094 (≈ 0.25 µM) | 0.125 (≈ 0.333 µM) | 0.125 (≈ 0.333 µM) | 0.125 (≈ 0.333 µM) | 0.094 | 0.125 | 0.094 | 0.125 | 0.094 | 0.25 (≈ 0.666 µM) | MIC [21]: 0.25 µg/mL (≈ 0.666 µM); MIC [22]: 0.125 µg/mL (≈ 0.333 µM); MIC [23]: 0.125 µg/mL (≈ 0.333 µM); MIC [24]: 0.125 µg/mL (≈ 0.333 µM); MIC [25]: 0.125 µg/mL (≈ 0.333 µM); MIC [26]: 0.125 µg/mL (≈ 0.333 µM); MIC [27]: 0.25 µg/mL (≈ 0.666 µM); MIC [28]: 0.19 µg/mL (≈ 0.506 µM); MIC [29]: 0.19 µg/mL (≈ 0.506 µM); MIC [30]: 0.19 µg/mL (≈ 0.506 µM); MIC [31]: 0.13 µg/mL (≈ 0.346 µM); MIC [32]: 0.13 µg/mL (≈ 0.346 µM); MIC [33]: 0.19 µg/mL (≈ 0.506 µM); MIC [34]: 0.25 µg/mL; MIC [35]: 0.13 µg/mL (≈ 0.346 µM); MIC [36]: 0.13 µg/mL (≈ 0.346 µM); MIC [37]: 0.09 µg/mL (≈ 0.24 µM); MIC [38]: 0.19 µg/mL; MIC [39]: 0.13 µg/mL (≈ 0.346 µM); MIC [40]: 0.19 µg/mL
